Read-outs that look alike come from different tables or passages of the source.
Legend:
[1] = molecular target: EGFR (L858R/T790M/C797S) TK (Homo sapiens, UniProt P00533, C797S/L858R/T790M); assay: ADP-Glo kinase assay, EGFR tyrosine kinase inhibition; type: biochemical
Protocol: The inhibitory activity of each candidate compound towards EGFR triple mutations was performed using the luminescent ADP-Glo™ kinase assay (Promega Corporation, Madison, WI, USA) as previously described. […] Subsequently, 10 μL of kinase detection reagent was added and incubated at room temperature for 30 min to convert ADP into ATP. The generated luminescence by ATP in a luciferase reaction was then measured using a microplate reader (Infinite M200 microplate reader, Tecan, Männedorf, Switzerland), which corresponds to kinase activity. All assays were performed in triplicate and the obtained data were represented as the relative inhibition (%) of inhibitors compared to the control with no inhibitor as shown in Equation (1); (1) % relative inhibition=positive−negative−sample−negative/positive−negative×100

[2] = MTT cytotoxicity assay on Vero cells; settings: monkey, Vero cells (normal kidney epithelial cell line), IC50, cytotoxic effect on Vero cell viability
Protocol: (§1) Human NSCLC cell lines, H1975 (ATCC CRL-5908) and monkey’s normal kidney epithelial cell line (Vero, ATCC CCL-81) were purchased from American Type Culture Collection (ATCC, Manassas, VA, USA). H1975 cells were grown in RPMI-1640 medium supplemented with 10% FBS, 100 U/mL penicillin, and 100 µg/mL streptomycin. Vero cells were grown in Dulbecco’s modified Eagle’s minimal essential medium (DMEM; Gibco, Grand Island, NY, USA) containing 10% fetal bovine serum (FBS; Gibco), 100 U/mL penicillin, and 100 µg/mL streptomycin (Gibco). Both cells were maintained to grow at 37 °C in a humidified 5% CO2 atmosphere.
(§2) The studied cell lines were seeded into 96-well plates (cell density of 6000 cells/well) and were incubated overnight. Then, cells were treated with screened compounds and the known drug with various concentrations (125, 62.5, 31.25, 15.63, 7.81, 3.91, 1.95, and 0.98 μM) for 72 h. After incubation, the effect of compounds on cell viability was measured using the MTT assay as follows: 10 μL of MTT solution (5 mg/mL) was added and then incubated for 3 h. The medium was removed, followed by adding 50 μL of DMSO to dissolve the crystal formazan product. The purple solution of crystal formazan was then measured at 570 nm using a microplate spectrophotometer (Infinite M200 microplate reader, Tecan, Männedorf, Switzerland). The complete medium with 1.0% DMSO (no inhibitor) was used as a control in accordance with the reaction containing 1.0% DMSO of all wells.

[3] = system: H1975 lung cancer cells expressing L858R/T790M EGFR; assay: MTT cytotoxicity assay on H1975 cells; type: cell-based, Human; settings: read-out: IC50, cytotoxic effect on H1975 cell viability
Protocol: Both cells were maintained to grow at 37 °C in a humidified 5% CO2 atmosphere.
The studied cell lines were seeded into 96-well plates (cell density of 6000 cells/well) and were incubated overnight. […] After incubation, the effect of compounds on cell viability was measured using the MTT assay as follows: 10 μL of MTT solution (5 mg/mL) was added and then incubated for 3 h. The medium was removed, followed by adding 50 μL of DMSO to dissolve the crystal formazan product. The purple solution of crystal formazan was then measured at 570 nm using a microplate spectrophotometer (Infinite M200 microplate reader, Tecan, Männedorf, Switzerland). The complete medium with 1.0% DMSO (no inhibitor) was used as a control in accordance with the reaction containing 1.0% DMSO of all wells.

Vero normal kidney cells = assay: MTT cytotoxicity assay on Vero cells; settings: read-out: IC50, cytotoxic effect on Vero cell viability, 72 h
Protocol: as §1, §2

in vitro = settings: monkey, IC50, cytotoxic effect on Vero cell viability
Protocol: as §1, §2

[4] = enzyme-based assay, mean ± SEM, triplicate, read-out: IC50, kinase inhibitory activity against EGFR (L858R/T790M/C797S)
[5] = Homo sapiens, NCI-H1975, MTT, 72 h

EGFR (L858R/T790M/C797S) TK, sequence (P00533 25-1210 T790M/C797S/L858R): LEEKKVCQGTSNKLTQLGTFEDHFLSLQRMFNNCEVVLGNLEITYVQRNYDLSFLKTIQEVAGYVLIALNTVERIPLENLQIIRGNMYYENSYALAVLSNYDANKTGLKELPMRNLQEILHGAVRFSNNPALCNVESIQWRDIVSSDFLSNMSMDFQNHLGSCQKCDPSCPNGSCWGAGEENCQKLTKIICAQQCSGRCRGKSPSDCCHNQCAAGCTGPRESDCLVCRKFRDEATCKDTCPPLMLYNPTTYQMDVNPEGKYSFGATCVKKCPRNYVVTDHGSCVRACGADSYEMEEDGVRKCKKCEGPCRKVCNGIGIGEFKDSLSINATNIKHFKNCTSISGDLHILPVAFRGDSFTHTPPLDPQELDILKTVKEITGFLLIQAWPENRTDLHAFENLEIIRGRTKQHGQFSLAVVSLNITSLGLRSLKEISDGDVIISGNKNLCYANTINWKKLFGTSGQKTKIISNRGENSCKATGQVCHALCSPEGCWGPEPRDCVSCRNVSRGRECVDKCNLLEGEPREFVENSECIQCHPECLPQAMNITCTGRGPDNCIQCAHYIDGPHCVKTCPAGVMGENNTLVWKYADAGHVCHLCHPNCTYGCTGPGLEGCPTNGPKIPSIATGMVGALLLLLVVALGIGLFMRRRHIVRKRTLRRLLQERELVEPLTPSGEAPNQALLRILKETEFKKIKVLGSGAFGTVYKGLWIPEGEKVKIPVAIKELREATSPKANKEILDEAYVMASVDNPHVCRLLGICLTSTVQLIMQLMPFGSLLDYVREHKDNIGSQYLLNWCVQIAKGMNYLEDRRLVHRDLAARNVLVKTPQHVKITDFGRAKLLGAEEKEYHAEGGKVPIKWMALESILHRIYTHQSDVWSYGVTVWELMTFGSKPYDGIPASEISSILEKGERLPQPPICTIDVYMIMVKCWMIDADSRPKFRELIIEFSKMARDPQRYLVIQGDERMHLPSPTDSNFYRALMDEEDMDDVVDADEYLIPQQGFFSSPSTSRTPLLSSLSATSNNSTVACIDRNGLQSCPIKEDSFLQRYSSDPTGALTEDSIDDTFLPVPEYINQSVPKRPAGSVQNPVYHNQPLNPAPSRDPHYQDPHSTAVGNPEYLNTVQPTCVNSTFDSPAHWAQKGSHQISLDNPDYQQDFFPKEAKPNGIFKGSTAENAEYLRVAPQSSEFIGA

IC50 [1, 4] [µM]	SMILES	IC50 at 72 h [2] [µM]	IC50 [3, 5] [µM]	IC50 [1] [µM]	IC50 (Vero normal kidney cells) [µM]	IC50 ([3]; MTT, 72 h) [µM]	IC50 ([3]; Homo sapiens, NCI-H1975, 72 h) [µM]	IC50 at 72 h (in vitro) [µM]
0.00304 ± 0.00124	O=c1c(-n2cncn2)nc2ccccc2n1Cc1ccccc1 [CPD4]	> 20	3.47 ± 2.2					
0.0105 ± 0.0011	O=c1[nH]c2ccccc2nc1OCc1ccccc1 [CPD16]	> 100	79.4 ± 4.35					
0.00381 ± 0.0018	CCOc1nc2ccccc2n(Cc2ccccc2)c1=O [CPD21, 1-Benzyl-3-ethoxyquinoxalin-2(1H)-one]	> 100	44.7 ± 2.34					

Second part, the compound before the results:

SMILES	IC50 [1, 4] [µM]	IC50 at 72 h [2] [µM]	IC50 [3, 5] [µM]	IC50 [1] [µM]	IC50 (Vero normal kidney cells) [µM]	IC50 ([3]; MTT, 72 h) [µM]	IC50 ([3]; Homo sapiens, NCI-H1975, 72 h) [µM]	IC50 at 72 h (in vitro) [µM]
CCn1c(=O)c(-n2cnc3ccccc32)nc2ccccc21 [CPD15]		> 100		0.0065 ± 0.00302	> 50	31.2 ± 3.4		
C=CC(=O)Nc1cc(Nc2nccc(-c3cn(C)c4ccccc34)n2)c(OC)cc1N(C)CCN(C)C [Osimertinib, reference compound]							18.3 ± 2.02	> 100

Source: PMC9788584, “Quinoxalinones as A Novel Inhibitor Scaffold for EGFR (L858R/T790M/C797S) Tyrosine Kinase: Molecular Docking, Biological Evaluations, and Computational Insights” (Molecules, 2022)
